The subject of data set [1] is Escherichia coli. Nature of the data set: Bactericidal activity against Escherichia coli ATCC 25922 at 2 times MIC measured after 1 hr by time-killing kinetics assay. Type of data set: functional.
Data set [2] in a line: Acute toxicity in BALB/c mouse spleen assessed as inflammatory cell infiltration at 10 to 40 mg/kg, ip administered as single dose measured for 7 days by H and E staining method. The settings on record: in vivo, 168 h, dose 10-40 mg/kg, time 7 day. Type of data set: organism-based.
In data set [3] the test system is Escherichia coli. As to the kind of experiment: Antimicrobial activity against Escherichia coli ATCC 25922 assessed as reduction in survival rate in presence of 0.02 to 2000 microg/ml of trypsin measured after 6 hrs. The class given is functional, organism-based.

Activity calls are given as the source filed them. No cut-off for these calls is given here. Bridge positions count the residues as written; N and C are the ends. Square brackets hold non-standard residues; d marks the D form. Peptide text beside a SMILES is read from it. * marks the point of attachment. X1 = CC[C@H](C)CCCCC(=O)*; Dab = NCC[C@H](N)C(=O)O

In the case of `CC[C@H](C)CCCCC(=O)N[C@@H](CCN)C(=O)N[C@H](C(=O)N[C@@H](CCN)C(=O)N[C@H]1CCNC(=O)[C@H]([C@@H](C)O)NC(=O)[C@H](CCN)NC(=O)[C@H](CCN)NC(=O)[C@H](CC(C)C)NC(=O)[C@@H](Cc2ccccc2)NC(=O)[C@H](CCN)NC1=O)[C@@H](C)O` (X1-[Dab]T[Dab][Dab][Dab][dF]L[Dab][Dab]T; lactam 4-C), the Activity in the data set with Escherichia coli [1] is listed as 100%; in data set [2] it was “Non-Toxic”. Besides, in the data set with Escherichia coli [3], the outcome was Active.

The values above are taken from ChEMBL document CHEMBL5108051, “Improving the Antimicrobial Performance of Amphiphilic Cationic Antimicrobial Peptides Using Glutamic Acid Full-Scan and Positive Charge Compensation Strategies” (J Med Chem, 2022).
